Assay results: US20250304911A1, “CYSTEINE PROTOTROPHY” (Pfizer Inc., priority 2022, published 2025)

Columns and labels:
GNMT cell pool = assay: Sequential batch culture of GNMT cell pool with or without BME; format: cell-based, Chinese hamster; conditions: cysteine-free CD-CHO, 50 uM BME, within one passage, FIG. 8
Procedure: (§1) GNMT cell pools and CBS+CTH cell pools that had been adapted to grown in cysteine-free and homocysteine-free conditions as described in Example 7 were cultivated in 3-day or 4-day sequential batch cultures in cysteine-free CD-CHO media with or without 50 uM BME with the aim of testing the growth and adapting the cells to BME free conditions.

CBS+CTH cell pool = assay: Sequential batch culture of CBS+CTH cell pool with or without BME; format: cell-based, Chinese hamster; conditions: cysteine-free CD-CHO, 50 uM BME, FIG. 8
Procedure: as §1

GNMT clone 9 = assay: Batch shake flask maintenance culture with oleic acid and ferroptosis inducers, GNMT clone 9; conditions: for Viability / Viable Cell Density: Clone 9
Procedure: (§2) Two GNMT clones, clone 9 and 16, were cultivated for two passages in cysteine-free CD-CHO medium with and without oleic acid. In the oleic acid supplemented conditions, first passage received 1 micromolar (uM) of oleic acid and the second passage received 10 uM of oleic acid. In the third passage, the clones were cultivated in absence of OA but growth in presence of ferroptosis inducers, iron (12 uM ferrous sulphate) and zinc (10 uM zinc sulfate) to understand impact of prior culture in OA on ferroptosis.

GNMT clone 16 = assay: Batch shake flask maintenance culture with oleic acid and ferroptosis inducers, GNMT clone 16; conditions: for Viability / Viable Cell Density: Clone 16; for Growth and viability in iron and zinc supplemented cultures compared to untreated: 12 uM ferrous sulphate, 10 uM zinc sulfate, with or without prior OA
Procedure: as §2

GNMT clone 15 = assay: pH-adjusted fedbatch culture with Fer1, OA or Vitamin K1, GNMT clone 15; format: cell-based, Chinese hamster; conditions: for Viabilities by the end of the culture, treated versus untreated: 1 uM Fer1 or 10 uM OA on days 0, 5 and 6, FIG. 11A
Procedure: (§3) Two GNMT clones (overexpressing CBS, CTH and GNMT), clone 15 and 19, were cultivated in pH-adjusted fedbatch cultures in multiple shake flasks. Cells were seeded at 0.5E6 cell/mL in cysteine-free internal basal medium and were fed with 1% cysteine-free, nutrient rich medium daily starting day 4. For the first set of shake flasks, cultures for each clone were treated with 1 uM of Fer1 or 10 uM of OA on days 0, 5 and 6, or left untreated. For the second set of shake flasks, cultures for each clone were treated with 10 uM of Vitamin K1 on days, 0, 4, 5 and 6. Viable cell densities and viabilities were measured on various days during the fedbatch culture.

[1] = test system: GNMT cells (CHO cell pools overexpressing CBS, CTH and GNMT); assay: Growth of GNMT cell pool in L-homocysteine supplemented cysteine free CD CHO medium; format: cell-based, Chinese hamster; conditions: FIG. 4
Procedure: (§4) Next, the growth of CHO cell pools overexpressing CBS and CTH (referred to as “CBS+CTH” cells) or overexpressing CBS, CTH and GNMT (referred to as “GNMT” cells) was evaluated in cysteine free CD CHO medium or L-homocysteine supplemented cysteine free CD CHO medium. […] Subsequently, as described in more detail in Example 7, the CBS+CTH and the GNMT cell pools were adapted to grow in L-homocysteine free conditions. For both the CBS+CTH and GNMT cell pools, gene expression levels of CTH, CBS, GNMT and MTR were measured before and after adaptation to L-homocysteine free conditions (Table 5).

[2] = test system: CBS+CTH cells (CHO cell pools overexpressing CBS and CTH); assay: Growth of CBS+CTH cell pool in L-homocysteine supplemented cysteine free CD CHO medium; format: cell-based, Chinese hamster; conditions: FIG. 4
Procedure: as §4

GNMT clone 19 = assay: pH-adjusted fedbatch culture with Fer1, OA or Vitamin K1, GNMT clone 19; format: cell-based, Chinese hamster; conditions: 10 uM Vitamin K1 on days 0, 4, 5 and 6, FIG. 11B
Procedure: as §3

[3] = +10 uM OA (prior passages), Day 0, CD CHO alone, + 12 uM FeSO4 or + 10 uM ZnSO4
[4] = +10 uM OA (prior passages), Day 3, CD CHO alone, + 12 uM FeSO4 or + 10 uM ZnSO4
[5] = +10 uM OA (prior passages), Day 4, CD CHO alone, + 12 uM FeSO4 or + 10 uM ZnSO4
[6] = No OA, Day 0, CD CHO + 12 uM FeSO4 or + 10 uM ZnSO4
[7] = No OA, Day 3, CD CHO + 12 uM FeSO4 or + 10 uM ZnSO4
[8] = No OA, Day 4, CD CHO + 12 uM FeSO4 or + 10 uM ZnSO4

OCCS [BME, beta mercaptoethanol]
Growth and viability in BME free conditions versus with BME (GNMT cell pool): comparable
Growth and viabilities between BME-free and BME containing conditions (CBS+CTH cell pool): significantly different growth and viabilities

O=S(=O)([O-])[O-].[Fe+2] [FeSO4, ferrous sulphate]
Viability (GNMT clone 9; [3]): 99.6%
Viable Cell Density (GNMT clone 9; [3]): 3.45 E5 c/mL
Viability (GNMT clone 9; [4]): 99.2%
Viable Cell Density (GNMT clone 9; [4]): 21.94 E5 c/mL
Viability (GNMT clone 9; [5]): 99.1%
Viable Cell Density (GNMT clone 9; [5]): 38.38 E5 c/mL
Viability (GNMT clone 9; [6]): 100%
Viable Cell Density (GNMT clone 9; [6]): 3.54 E5 c/mL
Viability (GNMT clone 9; [7]): 99.2%
Viable Cell Density (GNMT clone 9; [7]): 19.65 E5 c/mL
Viability (GNMT clone 9; [8]): 99.3%
Viable Cell Density (GNMT clone 9; [8]): 39.74 E5 c/mL
Viability (GNMT clone 16; [3]): 99.6%
Viable Cell Density (GNMT clone 16; [3]): 3.63 E5 c/mL
Viability (GNMT clone 16; [4]): 98.6%
Viable Cell Density (GNMT clone 16; [4]): 19.21 E5 c/mL
Viability (GNMT clone 16; [5]): 99.2%
Viable Cell Density (GNMT clone 16; [5]): 40.8 E5 c/mL
Viability (GNMT clone 16; [6]): 98.7%
Viable Cell Density (GNMT clone 16; [6]): 4.02 E5 c/mL
Viability (GNMT clone 16; [7]): 98.5%
Viable Cell Density (GNMT clone 16; [7]): 14.07 E5 c/mL
Viability (GNMT clone 16; [8]): 99.1%
Viable Cell Density (GNMT clone 16; [8]): 31.09 E5 c/mL
Growth and viability in iron and zinc supplemented cultures compared to untreated (GNMT clone 16; clone 16, third passage): lower

CCOC(=O)c1ccc(NC2CCCCC2)c(N)c1 [Fer1, ferrostatin 1]
Viabilities by the end of the culture, treated versus untreated (GNMT clone 15): slightly higher viabilities

NC(CCS)C(=O)O [L-homocysteine, 2-amino-4-sulfanylbutanoic acid]
Growth in L-homocysteine supplemented cysteine free medium [1]: exhibited growth
Growth in L-homocysteine supplemented cysteine free medium [2]: exhibited growth

CCCCCCCC/C=C\CCCCCCCC(=O)O [OA, oleic acid]
Viable Cell Density (GNMT clone 9; [3]): 3.85 E5 c/mL
Viable Cell Density (GNMT clone 9; [4]): 21.99 E5 c/mL
Viable Cell Density (GNMT clone 9; [5]): 42.9 E5 c/mL
Benefit of exposure to OA on growth and viability (GNMT clone 9; clone 9, third passage, prior passages with 1 uM then 10 uM oleic acid): not observed
Viabilities by the end of the culture, treated versus untreated (GNMT clone 15): slightly higher viabilities
Viable Cell Density (GNMT clone 16; [3]): 4.44 E5 c/mL
Viable Cell Density (GNMT clone 16; [4]): 22.52 E5 c/mL
Viable Cell Density (GNMT clone 16; [5]): 48.33 E5 c/mL
Growth and viabilities of OA exposed versus unexposed conditions (GNMT clone 16; clone 16, third passage, prior passages with 1 uM then 10 uM oleic acid): higher growth and viabilities

CC1=C(C/C=C(\C)CCC[C@H](C)CCC[C@H](C)CCCC(C)C)C(=O)c2ccccc2C1=O [Vitamin K1]
Growth and viability with Vitamin K1 supplementation (GNMT clone 15; 10 uM Vitamin K1 on days 0, 4, 5 and 6, FIG. 11B): improved growth and viability
Growth and viability with Vitamin K1 supplementation (GNMT clone 19): improved growth and viability

O=S(=O)([O-])[O-].[Zn+2] [ZnSO4, zinc sulfate]
Viability (GNMT clone 9; [3]): 98.9%
Viable Cell Density (GNMT clone 9; [3]): 3.11 E5 c/mL
Viability (GNMT clone 9; [4]): 97.7%
Viable Cell Density (GNMT clone 9; [4]): 16.78 E5 c/mL
Viability (GNMT clone 9; [5]): 96.4%
Viable Cell Density (GNMT clone 9; [5]): 30.16 E5 c/mL
Viability (GNMT clone 9; [6]): 100%
Viable Cell Density (GNMT clone 9; [6]): 3.55 E5 c/mL
Viability (GNMT clone 9; [7]): 97.9%
Viable Cell Density (GNMT clone 9; [7]): 17.26 E5 c/mL
Viability (GNMT clone 9; [8]): 96.7%
Viable Cell Density (GNMT clone 9; [8]): 32.29 E5 c/mL
Viability (GNMT clone 16; [3]): 99.6%
Viable Cell Density (GNMT clone 16; [3]): 3.84 E5 c/mL
Viability (GNMT clone 16; [4]): 96.2%
Viable Cell Density (GNMT clone 16; [4]): 13.62 E5 c/mL
Viability (GNMT clone 16; [5]): 96%
Viable Cell Density (GNMT clone 16; [5]): 32.19 E5 c/mL
Viability (GNMT clone 16; [6]): 99.2%
Viable Cell Density (GNMT clone 16; [6]): 4.31 E5 c/mL
Viability (GNMT clone 16; [7]): 94.9%
Viable Cell Density (GNMT clone 16; [7]): 12.27 E5 c/mL
Viability (GNMT clone 16; [8]): 94.1%
Viable Cell Density (GNMT clone 16; [8]): 23.99 E5 c/mL
Growth and viability in iron and zinc supplemented cultures compared to untreated (GNMT clone 16; clone 16, third passage): lower
